The values that follow come from ChEMBL document CHEMBL5365416, “Identification of Ecdysteroid Sinapate Esters with COX-2 Inhibitory Effects from Fibraurea recisa Using Molecular Networking and MS2LDA” (2023).

Activity calls are given as the source filed them. The rule behind the calls is not given here.

Experiment [1] has as its system RAW264.7. Kind of experiment: Inhibition of LPS-induced NO production in mouse RAW264.7 cells at 30 uM relative to control. The format is functional.
For experiment [2], the system named is RAW264.7. Kind of experiment: Inhibition of LPS-induced COX2 protein expression in mouse RAW264.7 cells at 1 to 30 uM incubated for 24 hrs by Western blot analysis. The experiment is classed as functional, cell-based. The note with it: dose 1-30 µM. (In western blotting, separated proteins are transferred to a membrane and probed.)
Experiment [3] deals with RAW264.7. Kind of experiment: Inhibition of LPS-induced iNOS protein expression in mouse RAW264.7 cells at 30 uM incubated for 24 hrs by Western blot analysis. The experiment is classed as functional, cell-based.
The test system of experiment [4] is RAW264.7. Kind of experiment: Inhibition of LPS-induced COX2 protein expression in mouse RAW264.7 cells at 0.1 to 30 uM incubated for 24 hrs by Western blot analysis. The experiment is classed as functional, cell-based. To be noted: dose 0.1-30 µM.

As a reminder, the inhibition is the share of the control response that was lost under treatment. As for `COc1cc(/C=C/C(=O)O[C@@H]2C[C@H]3C(=O)C=C4[C@H](CC[C@]5(C)[C@@H]([C@@](C)(O)[C@H](O)C[C@@H](C)C(C)(C)O)CC[C@@]45O)[C@@]3(C)C[C@@H]2O)cc(OC)c1O`, 30 µM produced 14.7% inhibition in the experiment with RAW264.7 [1]. In addition, the inhibition entry in the experiment with RAW264.7 [2] and in the experiment on RAW264.7 [3] was “inactive” in each case.
Turning to `C[C@H](C[C@@H](O)[C@](C)(O)[C@H]1CC[C@@]2(O)C3=CC(=O)[C@@H]4C[C@@H](O)[C@@H](O)C[C@]4(C)[C@H]3CC[C@]12C)C(C)(C)O`, in the experiment with RAW264.7 [4], the inhibition entry was “inactive”.
On the same count and under the same terms, next, `COC(=O)/C=C/c1cc(OC)c(O)c(OC)c1`: “inactive”.
As to `COc1cc(/C=C/C(=O)O[C@H]2C[C@@]3(C)[C@@H](C[C@H]2O)C(=O)C=C2[C@@H]3CC[C@]3(C)[C@@H]([C@@](C)(O)[C@H](O)C[C@@H](C)C(C)(C)O)CC[C@@]23O)cc(OC)c1O`, in the experiment with RAW264.7 [1], 30 µM produced 12.7% inhibition. Further, in the experiment with RAW264.7 [2], the inhibition result is “Active”. For the same molecule, the inhibition entry in the experiment on RAW264.7 [3] was “inactive”.
